Reference: patent US12338268B2, “Compositions and methods for treating protein aggregation-associated diseases” (The Board of Trustees of the Leland Stanford Junior …, priority 2019, dated 2025)

What was measured:
[1] = tested on: yeast model systems and tissue culture cells; experiment: Neurotoxicity associated with Huntington's Disease in yeast model systems and tissue culture cells; format: cell-based; settings: elevated levels of the subunit
[2] = biological target: T1, mutant Huntingtin exon 1 (mHttQ51) (Homo sapiens, UniProt P42858, INS38QQQQQQQQQQQQQQQQQQQQQQQQQQQQQQQ); experiment: In vitro filter trap aggregation assay of mutant Huntingtin exon 1; format: biochemical; settings: 5× or 10× molar excess of peptides
T1 construct: mutant Huntingtin exon 1 containing a pathogenic stretch of 51 glutamines (mHttQ51); GST (N, cleaved yes); made in house; host or cells: E. coli Rosetta 2(DE3) pLysS
T1 sequence (P42858 with tags, fused parts or gaps with the stated changes limits assumed): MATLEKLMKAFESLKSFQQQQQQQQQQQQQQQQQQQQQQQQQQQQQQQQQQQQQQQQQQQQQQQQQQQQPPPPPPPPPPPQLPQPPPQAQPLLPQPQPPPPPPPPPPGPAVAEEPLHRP
Procedure: Mutant Huntingtin and PolyQ51 aggregation reactions were performed at concentration 3 μM of mHttQ51, 0.044 Units/μl acTEV protease (Invitrogen, Carlsbad, CA, USA), and respective concentrations of Ovalbumin (Sigma) or purified NAC chaperone variants. Aggregation was conducted in TEV reaction buffer (Invitrogen) and incubated at 30° C. AtxQ78 was buffer exchanged into TEV reaction buffer using 7K MWCO Zeba Spin Desalting Columns (Thermo Fisher) to initiate aggregation. AtxQ78 aggregation reactions were performed at 30 μM of Ataxin-3 in reaction buffer (20 mM sodium phosphate pH 7.5, 25 mM NaCl, 6 mM MgCl2, 2 mM DTT, 5% (v/v) glycerol) and incubated at 37° C. Samples at varied time-points were then taken and combined in a 1:1 ratio with a 4% (w/v) SDS, 100 mM DTT solution, boiled for 5 min at 95° C., and stored at −20° C. Samples were then filtered through a 0.22 μm cellulose acetate membrane (Whatman) and washed with 0.1% (w/v) SDS. Membrane was probed using an S-tag antibody (Abcam) for mHttQ51 and PolyQ51, and with a His-tag antibody (Abcam) for AtxQ78.

Substance: full length CCT1 subunit: single subunit of the TRiC/CCT chaperonin complex
- neurotoxicity associated with Huntington's Disease [1]: suppress neurotoxicity

Substance: C. elegans N-βNAC peptide: synthetic peptide corresponding to the N-terminal region of C. elegans βNAC (SEQ ID NO:1) (MDSKAIAERIKKLQAQQEHVRIGGKGTPRRKKKVIHKTAA)
- mHttQ51 aggregation [2]: sufficient to suppress aggregation of mHttQ51
